Results reported in patent US11497787B2, “Functionalized poly-ADP-ribose polymers for drug delivery” (University of Southern California, priority 2019, dated 2022).
Where two headings read alike, the source gives them in different places.

Tests used:
[1] = target: T1, purified human full-length PARP1 (Homo sapiens, UniProt P09874); assay: HPLC-based kinetic assay, NADase activity; type: biochemical; conditions: hydrolysis catalyzed by PARP1, 30° C.
T1 construct: His6 (C); made in house; host or cells: E. coli BL21 (DE3), pET-28a(+)
T1 sequence (P09874 whole entry): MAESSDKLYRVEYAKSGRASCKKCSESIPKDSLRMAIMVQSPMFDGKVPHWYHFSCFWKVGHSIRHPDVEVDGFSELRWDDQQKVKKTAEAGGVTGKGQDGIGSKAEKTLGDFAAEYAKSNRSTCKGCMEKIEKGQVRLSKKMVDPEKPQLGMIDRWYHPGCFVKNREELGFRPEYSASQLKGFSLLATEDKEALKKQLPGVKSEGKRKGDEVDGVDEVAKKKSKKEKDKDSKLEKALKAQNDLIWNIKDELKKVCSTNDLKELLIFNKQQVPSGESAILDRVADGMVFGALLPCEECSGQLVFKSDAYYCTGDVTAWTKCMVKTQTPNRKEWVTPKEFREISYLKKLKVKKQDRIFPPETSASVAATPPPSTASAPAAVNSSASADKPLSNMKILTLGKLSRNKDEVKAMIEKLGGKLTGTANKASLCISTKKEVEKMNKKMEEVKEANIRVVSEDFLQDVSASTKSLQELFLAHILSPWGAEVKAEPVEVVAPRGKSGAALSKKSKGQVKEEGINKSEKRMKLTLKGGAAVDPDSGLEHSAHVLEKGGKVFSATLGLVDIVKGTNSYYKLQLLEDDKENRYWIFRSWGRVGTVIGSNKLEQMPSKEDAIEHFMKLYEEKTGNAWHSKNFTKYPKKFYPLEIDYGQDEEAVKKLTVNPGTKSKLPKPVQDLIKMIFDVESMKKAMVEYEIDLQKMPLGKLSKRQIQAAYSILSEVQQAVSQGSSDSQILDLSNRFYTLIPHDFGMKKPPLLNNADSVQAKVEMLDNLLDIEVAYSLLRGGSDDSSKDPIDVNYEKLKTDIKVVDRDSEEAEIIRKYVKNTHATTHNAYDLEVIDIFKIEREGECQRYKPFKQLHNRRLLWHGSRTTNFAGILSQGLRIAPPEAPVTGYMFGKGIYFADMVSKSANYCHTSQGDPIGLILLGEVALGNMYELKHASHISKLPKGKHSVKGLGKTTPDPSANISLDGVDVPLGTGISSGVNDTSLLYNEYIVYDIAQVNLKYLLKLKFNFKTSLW
Procedure: (§1) High-performance Liquid Chromatography (HPLC)-based Kinetic Assays. Auto-PARylation of PARP1 was carried out in 80 μL assay solutions (30 mM HEPES, pH 8.0, 5 mM MgCl2, 5 mM CaCl2, 1 mM DTT, 100 ng/μL of activated DNA, 100 ng/μL BSA) containing varied concentrations of NAD^+ (50, 100, 250, 450, 600, and 750 μM) or NAD^+ analogues (2, 6; see Table 1) at 30° C. with purified PARP1 enzymes. The reactions were quenched at different time points (NAD^+: 0, 2.5, 5, 10, 15, and 20 min; 2: 0, 60, 120, 180, 240, and 300 min; 6: 0, 5, 10, 15, 20 and 30 min) using 20% ice-cold TCA. After centrifugation, the reaction mixtures were analyzed by reverse phase HPLC using a semipreparative C18 Kinetex column (5 μm, 100 Å, 150×10.0 mm, from Phenomenex Inc, Torrance, Calif.) (mobile phase A: 0.1% formic acid (aq); mobile phase B: 0.1% formic acid in acetonitrile; flow rate=2.0 ml/min; 0-8 min: 0% B, 8-12 min: 0-50% B, 12-13 min: 50-2.5% B, 13-18 min: 2.5-40% B, 18-20 min: 40-0% B) with detection of UV absorbance at 260 nm. […] NADase reaction rates were determined based on the increase in peak areas of the assigned peaks of ADPr and ADPr analogues, while reaction rates for PARP activities were measured based on the decrease in peak areas of the assigned peaks of NAD^+ and NAD^+ analogues excluding NADase activity. […]

[2] = target: T1, purified human full-length PARP1; assay: HPLC-based kinetic assay, PARP activity (auto-PARylation); type: biochemical; conditions: substrate of PARP1, 30° C.
Procedure: as §1

[3] = target: wild type PARP1 (Homo sapiens, UniProt P09874); assay: Automodification and click-chemistry based immunoblot activity analysis
Chain of wild type PARP1 (P09874 whole entry): as above
Procedure: Automodification and Immunoblotting Activity Analysis. […] 20 μL of the reaction was taken out and saved for SDS-PAGE analysis. The remaining reaction mixtures were further labeled with azide-biotin (for 1-4) or phosphine-PEG3-Biotin (for 5 and 6) through copper(I)-catalyzed azide alkyne cycloaddition (CuAAC) and Staudinger reaction. The CuAAC reactions were performed for one hours at room temperature in 40 μL volume, which contain 30 μL PARP1 automodification mixtures, 2 mM THPTA, 1 mM CuSO4, 100 μM azide-biotin, and 10 mM sodium ascorbate in PBS. […] The levels of auto-PARylation were evaluated by immunoblots using a streptavidin-HRP conjugate for detection of the biotinylated PARP1 via click chemistry and Staudinger reaction.

[4] = target: T1, purified human full-length PARP1; conditions: literature value; read-out: Km with PARP1, previously reported value; cited from earlier work

SMILES	Km [1] [µM]	kcat, NADase activity [1] [s⁻¹]	Km [2] [µM]	kcat, PARP activity [2] [s⁻¹]	PARP1 automodification signal (substrate use), biotinylation-based immunoblot ([3]; 250 μM NAD^+ or analogue, 5 μM PARP1, 30° C., 2 hours)	Km [4] [µM]	suppression of PARP1 catalytic activity / automodification signal ([3]; automodification with NAD2 and NAD6, versus no-inhibitor controls)
NC(=O)c1ccc[n+]([C@@H]2O[C@H](COP(=O)([O-])OP(=O)(O)OC[C@H]3O[C@@H](n4cnc5c(N)ncnc54)[C@H](O)[C@@H]3O)[C@@H](O)[C@H]2O)c1 [NAD^+, nicotinamide adenine dinucleotide]	472 ± 187	0.0065 ± 0.0013	145 ± 36	0.0783 ± 0.0067	no automodification signals	97 ± 7	–
C[C@]1(c2nc3c(C(N)=O)cccc3[nH]2)CCCN1 [veliparib]	–	–	–	–	–	–	potently suppressed
